Assay results published in patent US12653865B2, “Dual-agonist compound for both GLP-1 and GIP receptors and application thereof” (Jiangsu Hengrui Pharmaceuticals Co., Ltd., priority 2020, dated 2026).
*1 amine or outer side, *2 acyl side, *3 side chain or, on linkers, in order; H or OH if unused. Where a SMILES comes first, the peptide text is derived from it. Side-chain parts run from the residue outwards. [ ]: non-standard residue; d: D form. The star is where a group is joined. C20 diacid = O=C(O)CCCCCCCCCCCCCCCCCCC(=O)*; γGlu = O=C(O)[C@H](CCC(=O)[*:2])N[*:1]; AEEA = NCCOCCOCC(=O)O; Aib = CC(C)(N)C(=O)O

Tests used:
normal mice = experiment: Blood glucose in normal mice after single subcutaneous injection and intraperitoneal glucose; type: in vivo, C57BL/6 mice; conditions: 10 nmol/kg sc; for Blood glucose: glucose ip 18 h later
Procedure: 18 h later, a glucose solution at a concentration of 0.2 g/mL was intraperitoneally injected. Blood glucose values were measured by collecting blood from the tail of mice at time points of 0 min, 15 min, 30 min, 60 min, and 120 min according to the experimental design. The specific procedures were as follows: the mouse was physically immobilized with the tail exposed, and a little was cut off the tail, then the tail was squeezed to bleed, and blood glucose was determined using a Roche active glucometer after the 1 st drop of blood was discarded. The area under the blood glucose curve (AUC) was calculated from the results of all points.

diet-induced obese mice = experiment: Body weight and fat mass in diet-induced obese mice; type: in vivo, C57BL/6 mice; conditions: induced obese mice, 10 nmol/kg sc
Procedure: High-fat food-induced obese male C57BL/6 mice (weighing 35-55 g, aged 10-12 weeks, purchased from Shanghai Jiesijie Laboratory Animal Co., Ltd.) were tested. […] According to the experimental design, the body weight of each mouse was measured and recorded on day 0, day 3, day 6 and so on to day 27, the average body weight of each group of mice was calculated, and weight change curves were plotted by taking the body weight on the first day as the standard. At the end, the fat and other visceral organs of each part of the mice were taken out and weighed, and the viscera/brain ratio for fat in each part of each mouse was calculated. The effect of the drug on the fat was determined by comparing the change in the organ/brain ratio for fat of different parts of each group of mice.

[1] = Stability in human plasma (LC-MS); type: in vitro ADME; conditions: 0 min (standard 100%)
Procedure: 5 μL of each of samples at concentrations of 20 ng/mL, 50 ng/mL, 100 ng/mL, 200 ng/mL, 500 ng/mL, 1000 ng/mL, 2000 ng/mL, 5000 ng/mL and 10000 ng/mL was added to 45 μL of human plasma. The content of the compounds in the samples was determined by the LC-MS method and a standard curve was formed. 5 μL of a 1 mg/mL polypeptide solution was added to 45 μL of human plasma. […] With the content at 0 min as the standard (100%), the relative content of the retained compounds in the samples at other time points was calculated.

CC[C@H](C)[C@H](NC(=O)[C@H](CCCCN)NC(=O)[C@H](CC(=O)O)NC(=O)[C@H](CCCCNC(=O)COCCOCCNC(=O)COCCOCCNC(=O)CC[C@H](NC(=O)CCCCCCCCCCCCCCCCCCC(=O)O)C(=O)O)NC(=O)[C@H](Cc1ccc(O)cc1)NC(=O)[C@@H](NC(=O)[C@H](CO)NC(=O)[C@H](Cc1ccc(O)cc1)NC(=O)[C@H](CC(=O)O)NC(=O)[C@H](CO)NC(=O)[C@@H](NC(=O)[C@H](Cc1ccccc1)NC(=O)[C@@H](NC(=O)CNC(=O)[C@H](CCC(=O)O)NC(=O)C(C)(C)NC(=O)[C@@H](N)Cc1ccc(O)cc1)[C@@H](C)O)[C@@H](C)O)[C@@H](C)CC)C(=O)N[C@@H](C)C(=O)N[C@@H](C)C(=O)N[C@@H](CCC(N)=O)C(=O)N[C@@H](CCC(=O)O)C(=O)N[C@@H](Cc1ccccc1)C(=O)N[C@H](C(=O)N[C@@H](CC(N)=O)C(=O)N[C@@H](Cc1c[nH]c2ccccc12)C(=O)N[C@@H](CC(C)C)C(=O)N[C@@H](CC(C)C)C(=O)N[C@@H](C)C(=O)NCC(=O)NCC(=O)N1CCC[C@H]1C(=O)N[C@@H](CO)C(=O)N[C@@H](CO)C(=O)NCC(=O)N[C@@H](C)C(=O)N1CCC[C@H]1C(=O)N1CCC[C@H]1C(=O)N1CCC[C@H]1C(=O)N[C@@H](CO)C(N)=O)C(C)C [Compound 7#] (H-Y[Aib]EGTFTSDYSIYK([AEEA-AEEA-γGlu-C20 diacid])DKIAAQEFVNWLLAGGPSSGAPPPS-NH2)
reduction of area under the blood glucose curve compared to placebo (normal mice): more than 60%
Blood glucose (normal mice; 0 min): 4.4 ± 0.8 mmol/L
Blood glucose (normal mice; 15 min): 6.7 ± 0.8 mmol/L
Blood glucose (normal mice; 30 min): 6.2 ± 1.3 mmol/L
Blood glucose (normal mice; 60 min): 5.7 ± 1.2 mmol/L
Blood glucose (normal mice; 120 min): 3.8 ± 1.1 mmol/L
Changes in body weight (diet-induced obese mice; Day 1): 0%
Changes in body weight (diet-induced obese mice; Day 4): −11.0%
Changes in body weight (diet-induced obese mice; Day 7): −17.6%
Changes in body weight (diet-induced obese mice; Day 10): −22.6%
Changes in body weight (diet-induced obese mice; Day 13): −22.3%
Changes in body weight (diet-induced obese mice; Day 16): −22.7%
Changes in body weight (diet-induced obese mice; Day 19): −25.9%
Changes in body weight (diet-induced obese mice; Day 22): −23.9%
Changes in body weight (diet-induced obese mice; Day 25): −23.9%
Changes in body weight (diet-induced obese mice; Day 28): −25.5%
relative content of compounds retained in plasma [1]: 100.00%
